Measured values taken from patent US20220081412A1, “QUINOLINYL-PYRAZINE-CARBOXAMIDE COMPOUNDS AND USES THEREOF” (The Regents of the University of Michigan, priority 2018, published 2022).

System: NCI60 cell lines
Assay: NCI60 cell line panel
Type: cell-based, human
Description: The Developmental Therapeutics Program (DTP) of NCI has evaluated more than 100,000 pure compounds and more than 34,000 crude extracts against the panel of human tumor cell lines. The resultant data are analyzed using a program called COMPARE, that rank the entire database of tested compounds in the order of the similarity of the responses. […] Thus, the NCI60 databases is highly useful to the cancer research community. Further experiments were conducted that tested some of the active compounds in a panel of NCI60 cell line to relate our compounds with some known inhibitors to have an idea of possible mechanism of action.
In order to understand the selectivity of these compounds in different cancer types, some of them were tested against a panel of 60 cell lines (Table XXXIX).

[1] = Non-Small Cell Lung Cancer, A549/ATCC
[2] = Non-Small Cell Lung Cancer, EKVX
[3] = Non-Small Cell Lung Cancer, HOP-62
[4] = Non-Small Cell Lung Cancer, HOP-92
[5] = Non-Small Cell Lung Cancer, NCI-H23
[6] = Non-Small Cell Lung Cancer, NCI-H226
[7] = Non-Small Cell Lung Cancer, NCI-H322M
[8] = Non-Small Cell Lung Cancer, NCI-H460
[9] = Non-Small Cell Lung Cancer, NCI-H522

`CCN(CC)CCCC(C)Nc1cnc(C(=O)Nc2ccc(Cl)c3cccnc23)cn1` (stereo not shown) [J9, N-(5-chloroquinolin-8-yl)-5-((5-(diethylamino)pentan-2-yl)amino)pyrazine-2-carboxamide] was tested, and the “GIPRCNT: % Growth inhibition” value (Breast Cancer, BT-549) was 80.08%, the “GIPRCNT: % Growth inhibition” value (Breast Cancer, HS 578T) was 51.41% and the “GIPRCNT: % Growth inhibition” value (Breast Cancer, MCF7) was −2.145%. For the same compound, the “GIPRCNT: % Growth inhibition” value (Breast Cancer, MDA-MB-231/ATCC) was −29.6765%, the “GIPRCNT: % Growth inhibition” value (Breast Cancer, MDA-MB-468) was −28.0145% and the “GIPRCNT: % Growth inhibition” value (Breast Cancer, T-47D) was −49.3289%. For the same compound, the “GIPRCNT: % Growth inhibition” value (CNS Cancer, SF-268) was 35.85%, the “GIPRCNT: % Growth inhibition” value (CNS Cancer, SF-295) was 63.03% and the “GIPRCNT: % Growth inhibition” value (CNS Cancer, SF-539) was −73.563%. For the same compound, the “GIPRCNT: % Growth inhibition” value (CNS Cancer, SNB-19) was 49.65%, the “GIPRCNT: % Growth inhibition” value (CNS Cancer, SNB-75) was 41.7% and the “GIPRCNT: % Growth inhibition” value (CNS Cancer, U251) was −35.3044%. For the same compound, the “GIPRCNT: % Growth inhibition” value (Colon Cancer, COLO 205) was −66.6925%, the “GIPRCNT: % Growth inhibition” value (Colon Cancer, HCC-2998) was 32.59% and the “GIPRCNT: % Growth inhibition” value (Colon Cancer, HCT-15) was 3.732%. The “GIPRCNT: % Growth inhibition” value (Colon Cancer, HCT-116) was −52.4351%, the “GIPRCNT: % Growth inhibition” value (Colon Cancer, HT29) was −49.3651% and the “GIPRCNT: % Growth inhibition” value (Colon Cancer, KM12) was 30.3%. For the same compound, the “GIPRCNT: % Growth inhibition” value (Colon Cancer, SW-620) was 0.6189%, the “GIPRCNT: % Growth inhibition” value (Leukemia, CCRF-CEM) was 5.288% and the “GIPRCNT: % Growth inhibition” value (Leukemia, HL-60(TB)) was −63.3005%. For the same compound, the “GIPRCNT: % Growth inhibition” value (Leukemia, K-562) was −45.7589%, the “GIPRCNT: % Growth inhibition” value (Leukemia, MOLT-4) was 2.901% and the “GIPRCNT: % Growth inhibition” value (Leukemia, RPMI-8226) was 2.196%. The “GIPRCNT: % Growth inhibition” value (Leukemia, SR) was 1.416%, the “GIPRCNT: % Growth inhibition” value (Melanoma, LOX IMVI) was −83.8894% and the “GIPRCNT: % Growth inhibition” value (Melanoma, M14) was −73.1499%. The “GIPRCNT: % Growth inhibition” value (Melanoma, MALME-3M) was −71.7698%, the “GIPRCNT: % Growth inhibition” value (Melanoma, MDA-MB-435) was −57.8225% and the “GIPRCNT: % Growth inhibition” value (Melanoma, SK-MEL-2) was 57.84%. For the same compound, the “GIPRCNT: % Growth inhibition” value (Melanoma, SK-MEL-5) was −3.699%, the “GIPRCNT: % Growth inhibition” value (Melanoma, UACC-62) was −52.4398% and the “GIPRCNT: % Growth inhibition” value (Melanoma, UACC-257) was −32.9601%. The “GIPRCNT: % Growth inhibition” value [1] was 23.43%, the “GIPRCNT: % Growth inhibition” value [2] was 66.07% and the “GIPRCNT: % Growth inhibition” value [3] was 43.04%. The “GIPRCNT: % Growth inhibition” value [4] was 38.78%, the “GIPRCNT: % Growth inhibition” value [5] was 80.43% and the “GIPRCNT: % Growth inhibition” value [6] was 39.13%. For the same compound, the “GIPRCNT: % Growth inhibition” value [7] was 35.3%, the “GIPRCNT: % Growth inhibition” value [8] was 3.469% and the “GIPRCNT: % Growth inhibition” value [9] was 4.415%. The “GIPRCNT: % Growth inhibition” value (Ovarian Cancer, IGROV1) was 44.22%, the “GIPRCNT: % Growth inhibition” value (Ovarian Cancer, NCI/ADR-RES) was 52.19% and the “GIPRCNT: % Growth inhibition” value (Ovarian Cancer, OVCAR-3) was −23.663%. For the same compound, the “GIPRCNT: % Growth inhibition” value (Ovarian Cancer, OVCAR-4) was 51.32%, the “GIPRCNT: % Growth inhibition” value (Ovarian Cancer, OVCAR-5) was 53.28% and the “GIPRCNT: % Growth inhibition” value (Ovarian Cancer, OVCAR-8) was 27.34%. The “GIPRCNT: % Growth inhibition” value (Ovarian Cancer, SK-OV-3) was 79.51%, the “GIPRCNT: % Growth inhibition” value (Prostate Cancer, DU-145) was 53.1% and the “GIPRCNT: % Growth inhibition” value (Prostate Cancer, PC-3) was 39.38%. The “GIPRCNT: % Growth inhibition” value (Renal Cancer, 786-0) was −44.1831%, the “GIPRCNT: % Growth inhibition” value (Renal Cancer, A498) was 53.99% and the “GIPRCNT: % Growth inhibition” value (Renal Cancer, ACHN) was −54.7701%. For the same compound, the “GIPRCNT: % Growth inhibition” value (Renal Cancer, CAKI-1) was 23.14%, the “GIPRCNT: % Growth inhibition” value (Renal Cancer, RXF 393) was 18.75% and the “GIPRCNT: % Growth inhibition” value (Renal Cancer, SN12C) was 31.6819%. The “GIPRCNT: % Growth inhibition” value (Renal Cancer, TK-10) was 57.61% and the “GIPRCNT: % Growth inhibition” value (Renal Cancer, UO-31) was 23.83%.
`CCN(CC)CCCC(C)Nc1cnc(C(=O)Nc2cccc3ccc(OC)nc23)cn1` (stereo not shown) [J11, 5-((5-(diethylamino)pentan-2-yl)amino)-N-(2-methoxyquinolin-8-yl)pyrazine-2-carboxamide] was tested, and the “GIPRCNT: % Growth inhibition” value (Breast Cancer, BT-549) was 83.22%, the “GIPRCNT: % Growth inhibition” value (Breast Cancer, HS 578T) was 69.51% and the “GIPRCNT: % Growth inhibition” value (Breast Cancer, MCF7) was 20.06%. The “GIPRCNT: % Growth inhibition” value (Breast Cancer, MDA-MB-231/ATCC) was 71.85%, the “GIPRCNT: % Growth inhibition” value (Breast Cancer, MDA-MB-468) was 79.15% and the “GIPRCNT: % Growth inhibition” value (Breast Cancer, T-47D) was 83.88%. The “GIPRCNT: % Growth inhibition” value (CNS Cancer, SF-268) was 63.03%, the “GIPRCNT: % Growth inhibition” value (CNS Cancer, SF-295) was 100.8191% and the “GIPRCNT: % Growth inhibition” value (CNS Cancer, SF-539) was 0.4567%. For the same compound, the “GIPRCNT: % Growth inhibition” value (CNS Cancer, SNB-19) was 94.85%, the “GIPRCNT: % Growth inhibition” value (CNS Cancer, SNB-75) was 75.89% and the “GIPRCNT: % Growth inhibition” value (CNS Cancer, U251) was 56.1223%. For the same compound, the “GIPRCNT: % Growth inhibition” value (Colon Cancer, COLO 205) was 71.37%, the “GIPRCNT: % Growth inhibition” value (Colon Cancer, HCC-2998) was 90.92% and the “GIPRCNT: % Growth inhibition” value (Colon Cancer, HCT-15) was −25.625%. For the same compound, the “GIPRCNT: % Growth inhibition” value (Colon Cancer, HCT-116) was −36.0085%, the “GIPRCNT: % Growth inhibition” value (Colon Cancer, HT29) was −47.1759% and the “GIPRCNT: % Growth inhibition” value (Colon Cancer, KM12) was 36.32%. The “GIPRCNT: % Growth inhibition” value (Colon Cancer, SW-620) was 2.118%, the “GIPRCNT: % Growth inhibition” value (Leukemia, CCRF-CEM) was −7.649% and the “GIPRCNT: % Growth inhibition” value (Leukemia, HL-60(TB)) was 72.3913%. For the same compound, the “GIPRCNT: % Growth inhibition” value (Leukemia, K-562) was −57.0747%, the “GIPRCNT: % Growth inhibition” value (Leukemia, MOLT-4) was 53.43% and the “GIPRCNT: % Growth inhibition” value (Leukemia, RPMI-8226) was 23.8%. For the same compound, the “GIPRCNT: % Growth inhibition” value (Leukemia, SR) was −5.71%, the “GIPRCNT: % Growth inhibition” value (Melanoma, LOX IMVI) was −89.8952% and the “GIPRCNT: % Growth inhibition” value (Melanoma, M14) was −75.6475%. For the same compound, the “GIPRCNT: % Growth inhibition” value (Melanoma, MALME-3M) was −69.7804%, the “GIPRCNT: % Growth inhibition” value (Melanoma, MDA-MB-435) was −58.2282% and the “GIPRCNT: % Growth inhibition” value (Melanoma, SK-MEL-2) was 70.47%. The “GIPRCNT: % Growth inhibition” value (Melanoma, SK-MEL-5) was 5.402%, the “GIPRCNT: % Growth inhibition” value (Melanoma, UACC-62) was −57.758% and the “GIPRCNT: % Growth inhibition” value (Melanoma, UACC-257) was −39.0086%. The “GIPRCNT: % Growth inhibition” value [1] was 81.18%, the “GIPRCNT: % Growth inhibition” value [2] was 104.0141% and the “GIPRCNT: % Growth inhibition” value [3] was 94.18%. The “GIPRCNT: % Growth inhibition” value [4] was 49.4978%, the “GIPRCNT: % Growth inhibition” value [5] was 96.1% and the “GIPRCNT: % Growth inhibition” value [6] was 61.44%. For the same compound, the “GIPRCNT: % Growth inhibition” value [7] was 75.47%, the “GIPRCNT: % Growth inhibition” value [8] was 1.048% and the “GIPRCNT: % Growth inhibition” value [9] was 5.069%. The “GIPRCNT: % Growth inhibition” value (Ovarian Cancer, IGROV1) was 78.33%, the “GIPRCNT: % Growth inhibition” value (Ovarian Cancer, NCI/ADR-RES) was 76.12% and the “GIPRCNT: % Growth inhibition” value (Ovarian Cancer, OVCAR-3) was −30.7372%. For the same compound, the “GIPRCNT: % Growth inhibition” value (Ovarian Cancer, OVCAR-4) was 98.13%, the “GIPRCNT: % Growth inhibition” value (Ovarian Cancer, OVCAR-5) was 91.29% and the “GIPRCNT: % Growth inhibition” value (Ovarian Cancer, OVCAR-8) was 68.24%. The “GIPRCNT: % Growth inhibition” value (Ovarian Cancer, SK-OV-3) was 86.95%, the “GIPRCNT: % Growth inhibition” value (Prostate Cancer, DU-145) was 78.79% and the “GIPRCNT: % Growth inhibition” value (Prostate Cancer, PC-3) was 69.52%. The “GIPRCNT: % Growth inhibition” value (Renal Cancer, 786-0) was 73.41%, the “GIPRCNT: % Growth inhibition” value (Renal Cancer, A498) was 46.17% and the “GIPRCNT: % Growth inhibition” value (Renal Cancer, ACHN) was −86.4619%. The “GIPRCNT: % Growth inhibition” value (Renal Cancer, CAKI-1) was 94.69%, the “GIPRCNT: % Growth inhibition” value (Renal Cancer, RXF 393) was 45.96% and the “GIPRCNT: % Growth inhibition” value (Renal Cancer, SN12C) was 78.47%. The “GIPRCNT: % Growth inhibition” value (Renal Cancer, TK-10) was 90.98% and the “GIPRCNT: % Growth inhibition” value (Renal Cancer, UO-31) was 69.07%.
